Assay results as given in US9474790B2, “Stable, protracted GLP-1/glucagon receptor co-agonists for medical use” (Novo Nordisk A/S, priority 2013, dated 2016).
Numbered stars: 1 amine (or outer) side, 2 acyl side, 3 side chain; on linkers, the order of the positions; unused ones are H or OH. Square brackets hold non-standard residues; d marks the D form. Side chains are listed from the residue outwards. Peptide text beside a SMILES is read from it. * marks the point of attachment. C18 diacid = O=C(O)CCCCCCCCCCCCCCCCC(=O)*; γGlu = O=C(O)[C@H](CCC(=O)[*:2])N[*:1]; AEEA = NCCOCCOCC(=O)O; Aib = CC(C)(N)C(=O)O

Molecular target: T1, human GLP-1 receptor (Homo sapiens, UniProt P43220)
T1 construct: expressed in transfected cells; host or cells: BHK cells (parent BHKTS13), clone FCW467-12A/KZ10-1, with CRE luciferase
Test: GLP-1 receptor potency, CRE luciferase reporter gene assay in BHK cells
Format: cell-based
Conditions: BHK cells expressing human GLP-1 receptor, read-out: EC50 GLP-1R
Experimental: The purpose of this example was to test the potency, of the glucagon derivatives of the invention, in vitro. The in vitro potency is the measure of human GLP-1 receptor or glucagon receptor activation, respectively, in a whole cell assay.
In vitro potency was determined by measuring the response of human GLP-1 or glucagon receptor, respectively, in a reporter gene assay. The assay was performed in a stably transfected BHK cell line that expresses either the human GLP-1 receptor or the human glucagon receptor and contains the DNA for the cAMP response element (CRE) coupled to a promoter and the gene for firefly luciferase (CRE luciferase). […] When assay incubation was completed, the luciferase substrate (luciferin) was added and the enzyme converted luciferin to oxyluciferin and produces bioluminescence. The luminescence was measured as the readout for the assay.
The cells used in this assay (clone FCW467-12A/KZ10-1) were BHK cells with BHKTS13 as a parent cell line. The cells were derived from a clone (FCW467-12A) that expresses the human GLP-1 receptor and were established by further transfection with
CRE luciferase to obtain the current clone.
The cells were cultured at 5% CO2 in DMEM medium with 10% FBS, 1×GlutaMAX, 1 mg/ml G418, 240 nM MTX (methotrexate) and 1% pen/strep (penicillin/streptomycin). They were aliquoted and stored in liquid nitrogen. Before each assay, an aliquot was taken up and washed three times in PBS before being suspended at the desired concentration in assay medium. For 96-well plates the suspension was made to give a final concentration of 5×10EE3 cells/well.
The following chemicals were used in the assay: Pluronic F-68 (10%) (Gibco 2404), ovalbumin (Sigma A5503), DMEM w/o phenol red (Gibco 11880-028), 1 M Hepes (Gibco 15630), Glutamax 100× (Gibco 35050) and steadylite plus (PerkinElmer 6016757).
Assay Medium consisted of DMEM w/o phenol red, 10 mM Hepes, lx GlutaMAX, 2% Ovalbumin and 0.2% Pluronic F-68.
Cell stocks were thawed in a 37° C. water bath. Cells were washed three times in PBS. The cells were counted and adjusted to 5×10EE3 cells/50 μl (1×10EE5 cells/ml) in Assay Medium. A 50 μl aliquot of cells was transferred to each well in the assay plate.
Stocks of the test compounds and reference compounds were diluted to a concentration of […] in Assay Medium. Compounds were diluted 10-fold to give the following concentrations: 2×10EE-6 M, 2×10EE-7 M, 2×10EE-8 M; 2×10EE-9 M, 2×10EE-10 M, 2×10EE-11 M, 2×10EE-12 M and 2×10EE-13 M. For each compound a blank assay medium control was also included.
A 50 μl aliquot of compound or blank was transferred from the dilution plate to the assay plate. Compounds were tested at the following final concentrations: 1×10EE-6 M, 1×10EE-7 M, 1×10EE-8 M; 1×10EE-9 M, 1×10EE-10 M, 1×10EE-11 M and 1×10EE-12 M and 1×10EE-13 M.
The assay plate was incubated for 3 h in a 5% CO2 incubator at 37° C. The assay plate was removed from the incubator and allowed to stand at room temperature for 15 min. A 100 μl aliquot of steadylite plus reagent was added to each well of the assay plate (reagent is light sensitive). Each assay plate was covered with aluminum foil to protect it from light and shaken for 30 min at room temperature. Each assay plate was read in a Perkin Elmer TopCount NXT instrument.
The data from the TopCount instrument was transferred to GraphPad Prism software. The software performed a non-linear regression (log(agonist) vs response-Variable slope (four parameter)). EC50 values were calculated by the software and reported in pM.

T1 sequence (P43220 24-463): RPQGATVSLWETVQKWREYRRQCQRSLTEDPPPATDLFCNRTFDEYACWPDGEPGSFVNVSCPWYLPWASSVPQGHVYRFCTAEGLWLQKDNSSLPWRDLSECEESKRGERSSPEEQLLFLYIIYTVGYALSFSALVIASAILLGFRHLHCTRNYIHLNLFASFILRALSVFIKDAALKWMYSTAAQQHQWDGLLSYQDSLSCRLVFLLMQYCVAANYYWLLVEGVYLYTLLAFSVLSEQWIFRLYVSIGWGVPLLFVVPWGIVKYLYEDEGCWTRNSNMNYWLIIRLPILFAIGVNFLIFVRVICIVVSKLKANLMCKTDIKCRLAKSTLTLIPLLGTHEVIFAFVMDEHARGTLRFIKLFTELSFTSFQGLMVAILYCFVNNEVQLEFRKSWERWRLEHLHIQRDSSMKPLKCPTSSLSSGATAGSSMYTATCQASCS

| EC50 [nM] | Compound |
| --- | --- |
| 0.044 | CC(C)C[C@H](NC(=O)[C@H](Cc1ccc(O)cc1)NC(=O)[C@H](CCCCN)NC(=O)[C@H](CO)NC(=O)[C@H](CC(C)C)NC(=O)[C@H](CC(=O)O)NC(=O)[C@H](CO)NC(=O)[C@@H](NC(=O)[C@H](Cc1ccccc1)NC(=O)[C@@H](NC(=O)CNC(=O)[C@H](CCC(N)=O)NC(=O)C(C)(C)NC(=O)[C@@H](N)Cc1c[nH]cn1)[C@@H](C)O)[C@@H](C)O)C(=O)N[C@@H](CC(=O)O)C(=O)N[C@@H](CO)C(=O)N[C@@H](CCCNC(=N)N)C(=O)N[C@@H](CCCNC(=N)N)C(=O)N[C@@H](C)C(=O)N[C@@H](CCCNC(=N)N)C(=O)N[C@@H](CCCCNC(=O)CC[C@H](NC(=O)CC[C@H](NC(=O)COCCOCCNC(=O)COCCOCCNC(=O)CC[C@H](NC(=O)CCCCCCCCCCCCCCCCC(=O)O)C(=O)O)C(=O)O)C(=O)O)C(=O)N[C@@H](Cc1ccccc1)C(=O)N[C@H](C(=O)N[C@@H](CCC(N)=O)C(=O)N[C@@H](Cc1c[nH]c2ccccc12)C(=O)N[C@@H](CC(C)C)C(=O)N[C@@H](CC(C)C)C(=O)N[C@@H](CO)C(=O)N[C@H](C(N)=O)[C@@H](C)O)C(C)C [Example 2] (H-H[Aib]QGTFTSDLSKYLDSRRARK([γGlu-γGlu-AEEA-AEEA-γGlu-C18 diacid])FVQWLLST-NH2; N-terminus assumed) |
| 0.006 | CC(C)C[C@H](NC(=O)[C@H](Cc1ccc(O)cc1)NC(=O)[C@H](CCCCN)NC(=O)[C@H](CO)NC(=O)[C@H](CC(C)C)NC(=O)[C@H](CC(=O)O)NC(=O)[C@H](CO)NC(=O)[C@@H](NC(=O)[C@H](Cc1ccccc1)NC(=O)[C@@H](NC(=O)CNC(=O)[C@H](CCC(N)=O)NC(=O)C(C)(C)NC(=O)[C@@H](N)Cc1c[nH]cn1)[C@@H](C)O)[C@@H](C)O)C(=O)N[C@@H](CC(=O)O)C(=O)N[C@@H](CO)C(=O)N[C@@H](CCCNC(=N)N)C(=O)N[C@@H](CCCNC(=N)N)C(=O)N[C@@H](C)C(=O)N[C@@H](CCCNC(=N)N)C(=O)N[C@@H](CC(=O)O)C(=O)N[C@@H](Cc1ccccc1)C(=O)N[C@H](C(=O)N[C@@H](CCCCNC(=O)CC[C@H](NC(=O)CC[C@H](NC(=O)COCCOCCNC(=O)COCCOCCNC(=O)CC[C@H](NC(=O)CCCCCCCCCCCCCCCCC(=O)O)C(=O)O)C(=O)O)C(=O)O)C(=O)N[C@@H](Cc1c[nH]c2ccccc12)C(=O)N[C@@H](CC(C)C)C(=O)N[C@@H](CC(C)C)C(=O)N[C@@H](CO)C(=O)N[C@H](C(N)=O)[C@@H](C)O)C(C)C [Example 3, N^ε24-[(4S)-4-carboxy-4-[[(4S)-4-carboxy-4-[[2-[2-[2-[[2-[2-[2-[[(4S)-4-carboxy-4-(17-carboxyheptadecanoylamino)butanoyl]amino]ethoxy]ethoxy]acetyl]amino]ethoxy]ethoxy]acetyl]amino]butanoyl]amino]butanoyl]-[Aib2,Leu10,Arg20,Lys24,Leu27,Ser28]-Glucagon amide] (H-H[Aib]QGTFTSDLSKYLDSRRARDFVK([γGlu-γGlu-AEEA-AEEA-γGlu-C18 diacid])WLLST-NH2; N-terminus assumed) |
